{
  "source": "patent US20240076667A1",
  "about": "“APPLICATION OF ANTISENSE OLIGONUCLEOTIDE TARGETING PBX1 PROMOTER REGION G-QUADRUPLEX IN PREPARATION OF MEDICINE FOR TREATING MELANOMA” (JILIN UNIVERSITY, priority 2022, published 2024)",
  "key": {"[1]": {"tested_on": "patient-derived melanoma xenograft (PDX)", "assay": "PDX model of melanoma in NCG mice", "assay_type": "in vivo", "settings": "PDX; intravenous injection 20 mg/kg every two days for 21 days; vs PBX1 ASO scramble", "description": "PDX model of melanoma: fresh tumor tissues are collected immediately after surgery, placed in RPMI 1640 medium containing penicillin/streptomycin (100 U/ml; 100 μg/ml), fungal zone (1 μg/ml) and Genta Mycin (50 μg/ml) (all from Gibco, USA) (4,5). According to the institutional review and the ethical guidelines for this study approved by the Ethics Committee of the Second Hospital of Jilin University, fresh tumor samples from patients suffering from melanoma are collected for transplantation with informed consent. The mice were kept and all procedures are performed under the approval and supervision of the Institutional Animal Care and Use Committee (IACUC) of the School of Public Health of Jilin University (Changchun, China). Necrotic tissues are excised before transplantation, and tumor tissues are minced to a size of 2×2×2 mm^3, and implanted subcutaneously in the flank of 6-week-old NCG male mice to generate first-generation (F1) PDX mice. Successfully transplanted tumor models are passaged and stored using standard methods. H&E staining is used to evaluate the morphology of patient tumor specimens and xenografts of established PDX models. Treatment with ASO Scr or ASO (intravenous injection, 20 mg/kg) is initiated when the tumor volume of the mice reached 220-280 mm^3. Tumor growth and body weight measurements are performed. Tumors are dissected at the end of treatment for further processing for RNA, protein and histological analysis.\nControl:mG*mT*mC*mC*mA*mC*mA*mA*mA*mC*mA*mC*mA*mA*mC*mT*mC* mC*mT*mG*). […] This example also establishes short-term cultures of patient-derived melanoma xenograft (PDX)-derived tumor cells (PDCs) (FIG. 5D). […] To further expand the analysis, this embodiment establishes the PDX model of melanoma, and […] is administered intravenously (intravenous injection) every two days for 21 days."}, "[2]": {"tested_on": "B16-F10 cells", "assay": "In vivo tumor metastasis assay, B16-F10 tail vein injection", "design": "species or system mice", "settings": "B16-F10 tail vein; PDS 5 mg/kg twice a day, 16 consecutive days", "description": "In vivo tumor metastasis assay: 2×10^5 B16-F10 cells are injected into the tail vein of tail vein tumor. According to solutions formulated by the NCI Animal Care and Use Committee, metastatic endpoints are determined for each experiment by maximal primary tumor burden and/or appearance of moribund mice in all treatment groups. PDS (5 mg/kg) is administered twice a day, for 16 consecutive days.\nBioluminescent tumor cell tracking: in vivo whole-animal imaging, anesthetized mice are injected intraperitoneally with 3 mg of d-luciferin (MCE, USA). Luminescence data is collected on an IVIS system (Perkin Elmer, USA). For live tissue imaging, tissues are perfused with PBS, harvested, and incubated in PBS with 1 μg/ml-1d-luciferin. Data analysis is performed using an IVIS Image software package."}},
  "data": [
    {"smiles": "NCCOc1cc(C(=O)Nc2cc(OCCN)c3ccccc3n2)nc(C(=O)Nc2cc(OCCN)c3ccccc3n2)c1", "note": "[PDS, Pyridostatin]", "values": [
      {"measurement": "tumor growth", "setting": "[1]", "value": "inhibits"},
      {"measurement": "metastasis of xenograft tumors (lung)", "setting": "[2]", "value": "remarkably inhibits"}
    ]}
  ]
}
